Experimental data from patent US6486310B1, “Gene encoding the rat dopamine D4 receptor” (Washington University, priority 1993, dated 2002).
Like-named read-outs stand apart in the source and are kept apart here. One block for each compound: values may come before it.

Assays:
[1] = system: D2A444 transfected MN9D cells; test: Neurite morphology of D2A444 transfected MN9D cells; details: 1 μM eticlopride co-cultured with 2 μM quinpirole
[2] = system: D4 transfected MN9D cells; test: Neurite morphology of D4 transfected MN9D cells; details: 1 μM eticlopride co-cultured with 2 μM quinpirole
[3] = system: D3 transfected MN9D cells; test: Neurite morphology of D3 transfected MN9D cells; details: 1 μM eticlopride co-cultured with 2 μM quinpirole
[4] = biological target: T1, rat D4 receptor (Rattus norvegicus, UniProt P30729); test: biochemical
T1 sequence (P30729 1-387): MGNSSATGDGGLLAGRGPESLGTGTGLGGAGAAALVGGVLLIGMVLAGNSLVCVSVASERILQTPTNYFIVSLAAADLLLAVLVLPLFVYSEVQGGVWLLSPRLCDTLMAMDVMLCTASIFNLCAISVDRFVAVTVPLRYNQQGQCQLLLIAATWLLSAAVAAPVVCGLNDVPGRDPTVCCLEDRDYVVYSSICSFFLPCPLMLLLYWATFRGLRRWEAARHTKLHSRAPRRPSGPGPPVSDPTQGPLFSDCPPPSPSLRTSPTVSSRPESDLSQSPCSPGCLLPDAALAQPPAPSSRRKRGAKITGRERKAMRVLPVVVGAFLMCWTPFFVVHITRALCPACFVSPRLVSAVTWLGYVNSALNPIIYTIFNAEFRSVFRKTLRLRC
Text: FIG. 4 is a pharmacological analysis of transfected rat D2444 and D4 receptors and human D3 receptors in CCL1.3 cells. […] FIG. 4B is a graph of [^3H]-spiperone (%) versus log [(+)butaclamol, M]. […] The rat D4 gene, the rat D2444 cDNA and the human D3 cDNA were inserted into the expression vector pcDNA/neo and transfected into CCL1.3 cells. […] Open circles, D4-expressing cells; closed circles, D2444-expressing cells, triangles, D3-expressing cells. Results are shown as mean±SD of percent of specifically bound [^3H]spiperone remaining for an experiment done in triplicate.
Mouse fibroblasts expressing D2A444 and D4 were grown to 70% confluence and then harvested by scraping. After they had been washed twice in PBS, the cell pellets were resuspended in distilled water and ruptured by homogenization with a Brinkman Polytron, at setting 6 for 10 sec. Nuclei were removed by centrifugation for 5 min at 600 g. Membranes were pelleted by centrifugation for 25 min at 50,000 g. The pellets were resuspended in water and frozen at −70° C. until assayed. For receptor binding assays, samples containing 150 μg of membrane protein were aliquoted into glass test tubes. [^3H]-Spiperone (1 nm) and varying concentrations of competing compounds were added in a final volume of 1 ml and a final buffer of 1.5 Mm CaCl2, 5 mM MgCl2, 5 mM KCl, 120 mM NaCl, 50 mM Tris-HCl, pH 7.4 at 20° C. The tubes were incubated for 15 min at 37° C., and the assays were terminated by addition of 5 ml of ice-cold 50 Mm Tris-HCl buffer (pH 6.9), collected onto glass-fiber filters, and washed twice with the same cold buffer in a modified Brandel cell harvester.
Transfected cells were enriched by expansion in medium containing G418. The rat D2 cDNA and the human D3 cDNA were expressed in the same cell line.

[5] = system: tyrosine hydroxylase expressing cells from E15 rat mesencephalon; test: Morphology of tyrosine hydroxylase positive cells in primary E15 mesencephalon cultures; format: cell-based; details: 2 μM quinpirole, 90 hours, high density culture
Text: Cultures were then fixed and dopamine synthesizing cells identified by tyrosine hydroxylase immunoreactivity. […] There are five TH positive cells in the control condition and three TH positive cells in the quinpirole condition.

- Ki ([4]; Ki (D4)): 22.3 ± 1.9 nM
- Ki ([4]; apparent Ki, D4 receptor): 27 ± 2.9 nM
Compound: CCc1cc(Cl)c(OC)c(C(=O)NC[C@@H]2CCCN2CC)c1O [eticlopride]
- block of the effects of quinpirole stimulation [1]: can be blocked
- block of the effects of quinpirole stimulation [2]: can be blocked
- block of the effects of quinpirole stimulation [3]: can be blocked

- Ki ([4]; read-out: apparent Ki, D4 receptor, transfected CCL1.3 cells, competition of 1 nM [3H]spiperone, mean±SEM): 51.3 ± 17.5 nM
Compound: (+)butaclamol [(+) butaclamal]

Compound: CCCN1CCC[C@@H]2Cc3n[nH]cc3C[C@H]21 [quinpirole]
- morphology of TH positive cells versus control (in words) [5]: larger, have more branch points and much more extensive growth cone elaboration
